Measured values taken from article PMC7747971 (Plant Communications, 2020).

Tests used:
[1] = target: AtTPS29 (Arabidopsis thaliana, UniProt Q9C6W6); format: cell-based
[2] = target: T1, AtTPS22 (Arabidopsis thaliana, UniProt Q9LQ27); format: cell-based
T1 sequence (Q9LQ27 57-603): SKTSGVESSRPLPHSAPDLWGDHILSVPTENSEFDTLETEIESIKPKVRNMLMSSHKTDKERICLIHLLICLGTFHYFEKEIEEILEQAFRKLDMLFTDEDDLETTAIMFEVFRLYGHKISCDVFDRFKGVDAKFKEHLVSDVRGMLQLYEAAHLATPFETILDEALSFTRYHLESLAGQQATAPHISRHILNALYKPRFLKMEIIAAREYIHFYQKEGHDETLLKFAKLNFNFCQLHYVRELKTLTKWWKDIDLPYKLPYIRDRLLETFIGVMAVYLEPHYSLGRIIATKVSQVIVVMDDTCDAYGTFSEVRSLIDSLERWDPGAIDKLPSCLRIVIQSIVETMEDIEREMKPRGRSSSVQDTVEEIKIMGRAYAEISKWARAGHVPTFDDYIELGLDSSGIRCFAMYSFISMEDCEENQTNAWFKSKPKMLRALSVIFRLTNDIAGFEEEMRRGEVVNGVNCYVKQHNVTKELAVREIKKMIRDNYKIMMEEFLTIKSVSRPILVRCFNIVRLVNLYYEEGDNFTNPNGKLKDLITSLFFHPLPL

[3] = target: T2, AtTPS06 (Arabidopsis thaliana, UniProt Q84UU9); format: cell-based
T2 sequence (Q84UU9 53-611): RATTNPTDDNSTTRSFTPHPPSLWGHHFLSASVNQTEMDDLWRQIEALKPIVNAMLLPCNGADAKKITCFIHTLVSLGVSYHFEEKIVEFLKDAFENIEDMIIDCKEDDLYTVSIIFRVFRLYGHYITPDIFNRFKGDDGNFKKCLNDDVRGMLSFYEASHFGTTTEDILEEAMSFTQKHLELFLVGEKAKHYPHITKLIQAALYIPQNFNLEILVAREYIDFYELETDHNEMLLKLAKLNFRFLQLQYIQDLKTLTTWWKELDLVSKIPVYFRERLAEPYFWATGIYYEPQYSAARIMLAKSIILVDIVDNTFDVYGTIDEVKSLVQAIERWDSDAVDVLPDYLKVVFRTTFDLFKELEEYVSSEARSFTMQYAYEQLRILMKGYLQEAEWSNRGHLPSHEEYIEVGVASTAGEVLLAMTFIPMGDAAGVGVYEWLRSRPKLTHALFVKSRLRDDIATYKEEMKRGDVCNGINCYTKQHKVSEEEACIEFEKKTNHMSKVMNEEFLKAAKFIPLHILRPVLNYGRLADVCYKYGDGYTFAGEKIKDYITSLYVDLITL

[4] = target: AtTPS19 (Arabidopsis thaliana, UniProt Q9LUE0); format: cell-based
Chain of AtTPS19 (Q9LUE0 49-602): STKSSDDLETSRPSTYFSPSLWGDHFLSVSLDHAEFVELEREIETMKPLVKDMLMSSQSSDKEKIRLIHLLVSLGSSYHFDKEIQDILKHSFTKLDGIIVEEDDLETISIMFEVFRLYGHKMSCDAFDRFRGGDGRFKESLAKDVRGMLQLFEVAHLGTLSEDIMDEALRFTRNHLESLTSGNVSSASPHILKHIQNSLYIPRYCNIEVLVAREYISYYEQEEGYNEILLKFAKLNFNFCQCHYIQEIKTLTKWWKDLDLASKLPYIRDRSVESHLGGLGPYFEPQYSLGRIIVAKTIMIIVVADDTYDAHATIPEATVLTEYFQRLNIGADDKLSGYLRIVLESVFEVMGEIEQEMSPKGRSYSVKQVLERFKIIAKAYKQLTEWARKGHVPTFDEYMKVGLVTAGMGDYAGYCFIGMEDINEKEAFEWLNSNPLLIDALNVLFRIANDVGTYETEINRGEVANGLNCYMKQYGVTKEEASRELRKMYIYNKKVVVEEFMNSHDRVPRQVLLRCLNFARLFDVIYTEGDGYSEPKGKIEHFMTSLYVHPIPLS

[5] = target: AtTPS18 (Arabidopsis thaliana, UniProt Q9LUE2); assay: X-ray crystal structure; format: binding; conditions: AtTPS18-PP complex
Chain of AtTPS18 (Q9LUE2 52-605): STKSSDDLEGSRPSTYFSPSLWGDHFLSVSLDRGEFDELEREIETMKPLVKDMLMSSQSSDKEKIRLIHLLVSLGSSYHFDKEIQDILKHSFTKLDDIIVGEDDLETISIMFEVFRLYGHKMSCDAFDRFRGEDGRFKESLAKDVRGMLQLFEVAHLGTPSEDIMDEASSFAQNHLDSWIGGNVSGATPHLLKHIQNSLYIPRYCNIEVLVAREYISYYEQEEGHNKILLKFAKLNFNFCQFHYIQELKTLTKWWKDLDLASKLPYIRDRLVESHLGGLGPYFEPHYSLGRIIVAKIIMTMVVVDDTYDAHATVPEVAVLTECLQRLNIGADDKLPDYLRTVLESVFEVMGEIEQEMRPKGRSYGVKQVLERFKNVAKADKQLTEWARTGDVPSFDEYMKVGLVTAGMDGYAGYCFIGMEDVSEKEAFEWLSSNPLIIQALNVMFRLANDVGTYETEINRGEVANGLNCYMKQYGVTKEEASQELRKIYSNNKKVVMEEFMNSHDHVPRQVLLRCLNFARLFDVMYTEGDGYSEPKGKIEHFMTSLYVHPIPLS

Chain of AtTPS29 (Q9C6W6 51-607): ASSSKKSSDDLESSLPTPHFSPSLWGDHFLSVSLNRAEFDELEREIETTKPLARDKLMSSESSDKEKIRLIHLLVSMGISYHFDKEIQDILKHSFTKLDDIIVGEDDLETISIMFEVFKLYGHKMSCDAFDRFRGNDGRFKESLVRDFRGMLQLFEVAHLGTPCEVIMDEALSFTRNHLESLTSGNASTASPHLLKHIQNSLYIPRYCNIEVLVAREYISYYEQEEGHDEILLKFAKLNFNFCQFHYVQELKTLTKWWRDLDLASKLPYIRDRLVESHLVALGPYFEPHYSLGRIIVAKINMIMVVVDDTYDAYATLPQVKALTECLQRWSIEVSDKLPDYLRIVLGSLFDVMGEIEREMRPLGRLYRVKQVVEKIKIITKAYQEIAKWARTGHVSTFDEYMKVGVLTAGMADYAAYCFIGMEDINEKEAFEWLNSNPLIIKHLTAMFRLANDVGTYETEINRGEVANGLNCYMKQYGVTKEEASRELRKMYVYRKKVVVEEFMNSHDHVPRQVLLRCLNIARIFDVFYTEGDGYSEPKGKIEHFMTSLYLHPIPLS

Row | SMILES | GC-MS of products in E. coli [1] | GC-MS of products in E. coli [2] | GC-MS of products in E. coli [3] | GC-MS of products in E. coli [4] | X-ray crystal structure [5]
1 | CC(C)=CCC/C(C)=C/CC/C(C)=C/CC/C(C)=C/CC/C(C)=C/COP(=O)(O)OP(=O)(O)O [GFPP] | sesterterpenes ... were detected in transgenic E. coli strains harboring AtTPS06, AtTPS22, or AtTPS29 | sesterterpenes ... were detected in transgenic E. coli strains harboring AtTPS06, AtTPS22, or AtTPS29 | AtTPS06, a multi-product enzyme, produces more than ten different sesterterpenes from GFPP | C8 (the main product of AtTPS19) | 
2 | O=P(O)(O)OP(=O)(O)O [PP] |  |  |  |  | AtTPS18-PP (PDB code 7BZB)
